Patent US20060069132A1, “Azolecarboxamide herbicides” (priority 2004, published 2006)

Legend:
velvetleaf = experiment: Test B pre-/postemergence herbicide test; type: in vivo, Abutilon theophrasti; settings: for Plant response rating (0 to 100 scale), Velvetleaf: 0 is no effect, preemergence
Procedure, shortened: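 Test chemicals in a non-phytotoxic solvent mixture with surfactant were applied preemergence to seeded species and postemergence to plants 2-18 cm tall (1- to 4-leaf stage); rice and barnyardgrass were also tested in a flooded paddy at the 2-leaf stage. Visual rating versus controls after 13-15 days in greenhouse, scale 0 (no effect) to 100 (complete control).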

bermudagrass = experiment: Test C pre-/postemergence herbicide test; type: in vivo, Cynodon dactylon
Procedure, shortened: (§1)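 Visual injury scores run from 0 (no effect) to 100 (complete control), assessed relative to untreated controls 12 to 14 days after treatment in the greenhouse. Chemicals were formulated in a non-phytotoxic solvent mixture with surfactant and applied to soil after planting or to emerged plants at the 1- to 4-leaf stage.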

cocklebur = experiment: Test C pre-/postemergence herbicide test; type: in vivo, Xanthium strumarium
Procedure, shortened: as §1

johnsongrass = experiment: Test C pre-/postemergence herbicide test; type: in vivo, Sorghum halepense
Procedure, shortened: as §1

eastern black nightshade = experiment: Test C pre-/postemergence herbicide test; type: in vivo, Solanum ptycanthum; settings: preemergence; for Plant response rating (0 = no effect, 100 = complete control), Nightshade: 125 g ai/ha
Procedure, shortened: as §1

soybean = experiment: Test C pre-/postemergence herbicide test; type: in vivo, Glycine max; settings: preemergence; for Plant response rating (0 = no effect, 100 = complete control), Soybean: 125 g ai/ha
Procedure, shortened: as §1

[1] = 125 g ai/ha, 100 is complete control
[2] = Postemergence, 500 g ai/ha, scale 0 (no effect) to 100 (complete control)
[3] = postemergence, 125 g ai/ha, scale 0 to 100
[4] = 62 g ai/ha, preemergence, scale 0 to 100, 0 no effect, 100 complete control
[5] = 250 g ai/ha, scale 0-100, preemergence
[6] = 500 g ai/ha, scale 0 to 100 (0 no effect, 100 complete control), visual, 12 to 14 days, preemergence
[7] = 62 g ai/ha, preemergence, scale 0 to 100
[8] = 500 g ai/ha, scale 0 to 100 (0 no effect, 100 complete control), visual, 12 to 14 days
[9] = 125 g ai/ha, visual rating, scale 0 (no effect) to 100 (complete control), postemergence
[10] = Postemergence, 250 g ai/ha, scale 0 to 100, 0 no effect, 100 complete control
[11] = postemergence, 31 g ai/ha, scale 0 to 100
[12] = postemergence, 62 g ai/ha, scale 0 to 100

| SMILES | Plant response rating (0 to 100 scale), Velvetleaf (velvetleaf; [1]) | Velvetleaf plant response rating (velvetleaf; [2]) | Plant response rating, Bermudagrass (bermudagrass; [4]) | Plant response rating (0 = no effect, 100 = complete control), Bermudagrass (bermudagrass; 125 g ai/ha, preemergence) | Plant response rating, Bermudagrass (bermudagrass; [5]) | Plant response rating, Bermudagrass (bermudagrass; [6]) | Plant response rating, Cocklebur (cocklebur; [7]) | Plant response rating (0 = no effect, 100 = complete control), Cocklebur (cocklebur; 125 g ai/ha, preemergence) | Plant response rating, Cocklebur (cocklebur; [5]) | Plant response rating, Cocklebur (cocklebur; [6]) | Plant response rating, Johnsongrass (johnsongrass; [7]) | Plant response rating (0 = no effect, 100 = complete control), Johnsongrass (johnsongrass; 125 g ai/ha, preemergence) | Plant response rating, Johnsongrass (johnsongrass; [5]) | Plant response rating, Johnsongrass (johnsongrass; [6]) | Plant response rating, Nightshade (eastern black nightshade; 62 g ai/ha, scale 0 to 100) | Plant response rating (0 = no effect, 100 = complete control), Nightshade (eastern black nightshade) | Plant response rating, Nightshade (eastern black nightshade; [8]) | Plant response rating, Soybean (soybean; 62 g ai/ha, scale 0 to 100) | Plant response rating (0 = no effect, 100 = complete control), Soybean (soybean) | Plant response rating, Soybean (soybean; [8]) | also measured |
| --- | --- | --- | --- | --- | --- | --- | --- | --- | --- | --- | --- | --- | --- | --- | --- | --- | --- | --- | --- | --- | --- |
| C=CCNC(=O)c1cccc(NC(=O)c2nn(C(C)(C)C)nc2CC)c1 [Compound 414] | 70 | 70 | 100 | 100 | 100 | 100 | 0 | 15 | 20 | 30 | 95 | 95 | 100 | 100 | 85 | 90 | 100 | 0 | 20 | 65 | Velvetleaf plant response rating (velvetleaf; [3]): 50 |
| CCOC(=O)c1cccc(NC(=O)c2nn(C(C)(C)CC)nc2CC)c1 [Compound 375] | 30 | 90 | 100 | 100 | 100 |  | 0 | 0 | 0 |  | 0 | 5 | 5 |  | 50 | 50 |  | 0 | 0 |  | Velvetleaf plant response rating (velvetleaf; [9]): 70; Plant response rating, Bermudagrass (bermudagrass; 31 g ai/ha, scale 0 to 100, 0 no effect, 100 complete control, last section of Table C (species set of preemergence test)): 95; Plant response rating, Bermudagrass (bermudagrass; [10]): 60; Plant response rating, Bermudagrass (bermudagrass; [3]): 30; Plant response rating, Bermudagrass (bermudagrass; [11]): 5; Plant response rating, Bermudagrass (bermudagrass; [12]): 20; Plant response rating, Cocklebur (cocklebur; [10]): 15; Plant response rating, Cocklebur (cocklebur; [3]): 10; Plant response rating, Cocklebur (cocklebur; [11]): 0; Plant response rating, Cocklebur (cocklebur; [12]): 10; Plant response rating, Johnsongrass (johnsongrass; [10]): 10; Plant response rating, Johnsongrass (johnsongrass; [3]): 5; Plant response rating, Johnsongrass (johnsongrass; [12]): 5; Plant response rating, Nightshade (eastern black nightshade; 250 g ai/ha, scale 0-100): 55; Plant response rating, Soybean (soybean; 250 g ai/ha, scale 0-100): 0 |
| CCC1=NN(C(C)(C)C)CC1C(=O)Nc1cc(C(=O)N(C)C)ccc1F (racemic) [Compound 343] | 100 |  | 60 | 70 | 90 | 90 | 30 | 80 | 80 | 100 | 70 | 80 | 100 | 100 | 60 | 60 | 95 | 40 | 80 | 100 | Velvetleaf plant response rating (velvetleaf; [9]): 20; Velvetleaf plant response rating (velvetleaf; postemergence, 500 g ai/ha, scale 0 to 100, 0 is no effect, 100 is complete control): 50; Plant response rating, Nightshade (eastern black nightshade; 250 g ai/ha, scale 0-100): 90; Plant response rating, Soybean (soybean; 250 g ai/ha, scale 0-100): 100 |
